Data published in patent publication US6630583B1, “Antibiotics and methods of using the same” (priority 1998, dated 2003).

What was measured:
[1] = test system: T4 strain (which encodes the T4 type Vex2 receptor); assay: Killing in vitro by synthetic R6 peptide; format: cell-based, pneumococcus; conditions: synthetic R6 peptide added to a T4 strain
Excerpt: Clinical isolates were sequenced and a predominance of the R6 type amino acid sequence for the P27 peptide and of the Type 4 amino acid sequence for the Vex2 transporter was found. Out of fourteen isolates that were screened for Vex2, twelve had the Type 4 allele and only two had the R6 type allele. Eleven of the fourteen isolates were also screened for the P27 peptide. Nine were of the R6 type P27 allele (SEQ ID NO:60) and only two were of the Type 4 P27 allele. Thus, most of the isolates examined encoded an R6 type peptide (SEQ ID NO:60) and a T4 type Vex transporter. Importantly, two of the three tolerant strains encoded either the R6 type P27 peptide and the R6 type Vex2, or alternatively, the T4 type P27 peptide and the T4 type Vex2 receptor indicating an over-representation of these “matching” combinations in tolerant strains. Furthermore, isolates encoding a mix of R6/T4 type P27 peptide/Vex2 receptor were more susceptible to being killed in vitro, i.e. when the synthetic R6 peptide was added to a T4 strain (which encodes the T4 type Vex2 receptor) there was about 10-20% more bioactivity. Thus, genotype combinations comprising the R6 type P27 peptide and the R6 type Vex2 receptor or the T4 type P27 peptide and the T4 type Vex2 receptor may facilitate the tolerant phenotype. […]

[2] = test system: Lyt 4-4; assay: Loss of chain formation (morphology); format: cell-based, Streptococcus pneumoniae; conditions: Lyt-4-4, P27 added
Excerpt: Loss of chain formation is a measure of antibacterial activity independent of autolysin.
Strains of pneumococcus that are tolerant to penicillin, such as Lyt 4-4, grow in long chains as compared to the diplococcal morphology of wild type pneumococci. FIG. 6A illustrates these chains, which extend to 30-50 bacteria in length.
P27 is capable of triggering different autolytic pathways: To identify the relationship between P27 and the activation of the autolysin LytA, the bactericidal effect of the peptide on the pneumococcal mutant Lyt-4-4 (which is deficient in the major autolysin), was investigated. […] Compared to the diplococcal morphology of wild type pneumococci, pneumococci lacking an active autolysin grow in long chains.

[3] = test system: clinical pneumococcal isolate; assay: Rabbit model of pneumococcal meningitis; format: in vivo; conditions: single intrathecal injection of 5 mg/kg, over 8 hours
Method: Rabbit model of pneumococcal meningitis: Pneumococcal meningitis was established according to a standard protocol [Tauber and Zwahlen, Methods Enzymol., 235:92-106 (1994)]. After withdrawal of CSF (300 μl), 10^4 bacteria of a vancomycin tolerant clinical serotype 23 isolate (RNET05) in 200 μl saline was introduced intracisternally in all animals. The rabbits in group one received no treatment, group two received vancomycin (60 mg/kg) six hours after infection: group three received a combination of vancomycin (60 mg/kg) and P27 (4 mg/kg) six hours after infection and group four received P27 (4 mg/kg) six hours after infection. At six hour intervals. CSF (200 μl) was withdrawn and tested for bacterial and leukocyte density.

[4] = test system: leucine deprived R6 cells; assay: Stringent response: lysis after leucine deprivation; format: cell-based, S. pneumoniae; conditions: 10×MIC of penicillin or vancomycin, 0.2 mM P27, or combination
Method: P27 and the stringent response mechanism: The stringent response is believed to prevent the death pathway. To clarify the relationship of the stringent response to P27 activity, protein synthesis of R6 was inhibited by leucine deprivation and the effect of P27 was monitored (FIG. 19). […] The minimum concentration of penicillin required to cause penicillin dependent autolysis was equal to its MIC ([…]).

[5] = test system: different streptococcal species and Staphylococcus aureus; assay: Disk diffusion assay; format: cell-based; conditions: disk soaked with synthetic P27 (2 mM)
Method: (§1) Anitmicrobial peptide sensitivity tests: Survival and autolysis rates in the presence of antimicrobial peptides were determined by exposing the parent strain R6 and the vncS deficient mutant to different concentrations (0.05 to 200 μM) of P27 or cecropin B (American Peptide Company, Sunnyvale, Calif., USA) at an OD620nm 0.05 (10^6 cfu/ml). For the disk diffusion assay, agar plates were seeded with a lawn of S. pneumoniae, Enterococcus faecalis, E. faecium, Streptococcus agalactiae, S. pyogenes or Staphylococcus aureus. The plates were incubated for 12 hours at 37° C. with a disk soaked with the synthetic P27 (2 mM). The size of the halo was determined with a ruler.

[6] = test system: pneumococcal strain R6; assay: Cell growth curves (OD 620 nm) and viability of R6 with peptide; format: cell-based, Streptococcus pneumoniae; conditions: peptides at 100 μM added to growing R6 at OD 620 nm of 0.1
Method: (§2) Cell growth curves were performed in the presence or absence of the test reagents as specified. In short, samples were prepared as follows: 1 ml of a pneumococcus culture was placed into 10 ml of prewarmed Semisynthetic (C+Y) medium. The optical density (OD) of the bacteria was monitored at 620 nm until an OD of approximately 0.1 was reached. At this point the test reagents were administered to the samples. The cells were cultured for up to 11 hours at 37° Celsius, and the OD at 620 nm was monitored every hour. A decrease in OD 620 is indicative of cell lysis, an increase is indicative of bacterial growth. No change in optical density indicates growth inhibition.
To characterize the antibacterial activity of the peptide, pneumococcal strain R6 which is sensitive to penicillin was exposed to 0.1 mM of the peptide having the amino acid sequence of SEQ ID NO:2 at an optical density of 0.01 (bacterial density of 3×10^6 cfu/ml). Bacterial growth as measured by optical density was followed for 11 hours and viability was assessed by plating on blood agar. […] Four hours after the start of the experiment, the control strain grew from 3×10^6 to 1.2×10^7 cfu/ml. In contrast, four hours after addition of the peptide, the viable bacterial number decreased from 3×10^6 to 3×10^4 CFU/ml (10^3-fold lower than the control).
The fact that the peptide is active in the range below 1 μg/ml places the potency of its antibacterial effect in the same range as conventional antibiotics.
R6 with no peptide was the control and underwent exponential growth. […] This enhanced activity may result from an improvement in folding of the peptide or greater access to the bacterial target.

[7] = test system: parent strain R6; assay: Antimicrobial peptide sensitivity test (growth, viability); format: cell-based, S. pneumoniae
Method: (§3) FIGS. 15A-15C show the effect of the synthetic peptide homolog P27 on induced growth inhibition. […] Cultures were in the early exponential phase of growth (10^6 cfu/ml) when treated with the synthetic peptide, P27. FIG. 15B is a block diagram showing the viability counts (after one hour) of parent strain R6, and loss of function mutants vncS, vncR, vex1, vex3, following the addition of 0.1 mM P27. R6 without the peptide is the positive control. […] Experimental conditions are the same as in FIG. 15A.
Cultures in the early exponential phase (10^6 cfu/ml) were treated with 0.1 mM P27 (*), 14-mer C-terminal peptide (□), 14-mer N-terminal peptide (Δ), a truncate lacking the 5C-terminal amino acids (◯) or an alternative peptide (⋄).
as §1
To determine the biological effect of P27, cultures of the parent strain R6 at an OD620nm of 0.1 were exposed to 0.1 mM of the synthetic peptide homolog P27 having the amino acid sequence of SEQ ID NO:44. […] This behavior is distinct from all other antibiotics described to date, which have a clear cut MIC.

[8] = test system: vncS deficient mutant; assay: as above; format: cell-based, S. pneumoniae; conditions: 0.1 mM P27
Method: as §3, §1

[9] = test system: antibiotic sensitive and LytA deficient bacteria; assay: Potentiation of the bactericidal effect of penicillin; format: cell-based, S. pneumoniae
[10] = test system: clinical pneumococcal isolates, which had no defect in the histidine/kinase VncS; assay: Growth of clinical isolates exposed to P27; format: cell-based, pneumococcus; conditions: 0.1 mM of P27
Method: To investigate if the peptide P27 was not only capable of triggering different death pathways but was in fact, obligatory, a mutant deficient in P27 was investigated for antibiotic tolerance. […] This was confirmed by Western blot analysis. After addition of 10×MIC of vancomycin, the vexcp3 mutant underwent less than 2 log kill in 4 hours in contrast to 4 log kill of the wild type (FIG. 18A). […] To exclude the possibility that tolerance of the vexp3 mutant resulted from changes in either the expression or intrinsic activity of the autolysin LytA, Western blot analysis of LytA of the vexp3 mutant was performed. […] However, exogenous autolysin from vexp3 mutant was as efficient as that from wild type pneumococcus at reconstitution of lysis of the autolysin deficient strain Lyt-4-4 (FIG. 18C). […] To investigate if this phenomenon was restricted to mutations in VncS or rather to the antibiotic tolerant phenotype, clinical pneumococcal isolates, which had no defect in the histidine/kinase VncS (verified by sequencing), were exposed to 0.1 mM of P27. […] This supports the conclusion that VncS might function as a receptor for P27.

[11] = test system: autolysin deficient strain Lyt 4-4; assay: Growth and killing of autolysin deficient strain; format: cell-based, Streptococcus pneumoniae; conditions: compared with R6
Method: The addition of the additives were made at time “0” hours. The strain of bacteria cultured was the Lyt-4-4 strain of Streptococcus pneumoniae which harbors a mutation leading to the loss of LytA activity. The peptide having the amino acid sequence of SEQ ID NO:2 was added as indicated at a concentration of 0.1 mM. Lyt-4-4 lacks active autolysin LytA and is therefore tolerant to penicillin treatment.
as §2
This antibacterial effect was also demonstrable in bacteria mutated so as to prevent autolysis by point mutation in the autolysin, as in the autolysin deficient strain Lyt 4-4. […]

| Sequence | more bioactivity (killing in vitro) [1] | chain formation [2] | kill of a clinical pneumococcal isolate [3] | lysis of R6 under leucine deprivation [4] | antibacterial activity against other species [5] | ability to inhibit R6 growth [6] | growth of R6 ([7]; 0.1 mM P27, OD620nm of 0.1) | concentrations at which a substantial loss of viability was demonstrated ([7]; R6) | inhibition of growth ([7]; R6, 50 nM P27) | dose dependence of the extent of growth inhibition ([7]; R6, 50 nM to 0.2 mM) | loss of viability ([7]; R6, 0.1 mM P27) | inhibition of growth ([7]; R6, 0.2 mM P27) | growth inhibition or cell death [8] | effect on bactericidal effect of penicillin [9] | growth of clinical isolates [10] | bactericidal effect on Lyt-4-4 [11] |
| --- | --- | --- | --- | --- | --- | --- | --- | --- | --- | --- | --- | --- | --- | --- | --- | --- |
| MRKEFHNVLSSDQLLTDKRPARDYNRK (Streptococcus Pneumoniae) [synthetic R6 peptide] | 10-20% |  |  |  |  |  |  |  |  |  |  |  |  |  |  |  |
| MRKEFHNVLSSGQLLADKRPARDYNRK (listed as Streptococcus pneumoniae) [Peptide P27] |  | reversion of the chains to diplococci | greater than 2 log | neither the addition of 10×the MIC of penicillin or vancomycin nor the addition of 0.2 mM P27 resulted in lysis | did not show antibacterial activity | the same effect | potent growth inhibition | greater than 0.05 mM | marginal | dose dependent | 2 log units | complete growth arrest | did not result in growth inhibition or even cell death | potentiates the bactericidal effect of penicillin | clear reduction in growth | still killed by P27 but not as efficiently as R6 |
